# Reference: patent publication US20160151318A1, “USE OF NITRATED LIPIDS FOR TREATMENT OF LIPID DISORDERS AND OBESITY, AND LIPID- AND OBESITY-RELATED CONDITIONS” (THE UNIVERSITY OF UTAH RESEARCH FOUNDATION, priority 2008, published 2016)
# Legend:
# Zucker obese rats = test: Chronic infusion of OA-NO2 or OA in Zucker obese rats (obesity, hyperlipidemia, kidney injury); format: in vivo, rat; details: 7.5 μg/kg/day via osmotic mini-pump; for reduction of proteinuria (urinary protein excretion): 24-hour urine (FIG. 7); for plasma free fatty acid levels (non-esterified fatty acid): fasted (FIG. 3B); for plasma cholesterol levels: fasted (FIG. 4); for plasma HDL levels: fasted (FIG. 5A); for body weight gain: male 4-mo-old Zucker obese rats, vs. vehicle control (FIG. 1)
# Description: Male 4-month-old Zucker obese and Zucker diabetic rats were from Charles River Laboratory (Wilmington, Mass.). All animals were housed in an air-conditioned room with a 12-hour light/dark cycle. All procedures and protocols were in accordance with guidelines set by the Laboratory Animal Care Committee at the University of Utah. Two strains of Zucker rats, obese and diabetes (ZDF) (Charles River), were treated with vehicle (ethanol), OA-NO2 at 7.5 μg/kg/d, or OA at 7.5 μg/kg/d via an osmotic mini-pump. Under isoflurane anesthesia, the mini-pump was implanted under the skin of the neck area. Body weight, food intake, and collections of blood and urine samples were determined before and after treatment. Animals were fasted from 6:00 pm to 9:00 am before blood sampling. Blood sampling was conducted by making a small cut (˜2 mm) in the tail using razor blade. 24-hour urine was collected using metabolic cages. Adult Zucker obese rats develop severe obesity and hyperlipidemia but are relatively resistant to diabetes. Therefore, these animals were used for testing the weight-loss and lipid lowering effects of OA-NO2. To determine whether these effects are directly attributable to the nitration of the fatty acid, the parent fatty acid (OA) was used as a control. Starting from 4 mo of age, Zucker obese rats were chronically infused for 2 weeks with vehicle, OA-NO2 (9-nitrooleic acid and 10-nitrooleic acid are purchased from Cayman Chemical, Ann Arbor, MI and used as an 1:1 mixture), or OA each at 7.5 μg/kg/day via an osmotic mini-pump. Parameters including body weight, food intake, the lipid profile, oxidative stress, and urinary protein excretion were determined. Animals were fasted from 6:00 pm to 9:00 am before blood sampling.
# Zucker diabetic rats = test: Chronic infusion of OA-NO2 in Zucker diabetic rats (ZDF strain); format: in vivo, rat; details: 7.5 μg/kg/d via osmotic mini-pumps, 1 week, fasted
# Description: Male 4-month-old Zucker obese and Zucker diabetic rats were from Charles River Laboratory (Wilmington, Mass.). All animals were housed in an air-conditioned room with a 12-hour light/dark cycle. All procedures and protocols were in accordance with guidelines set by the Laboratory Animal Care Committee at the University of Utah.
# Two strains of Zucker rats, obese and diabetes (ZDF) (Charles River), were treated with vehicle (ethanol), OA-NO2 at 7.5 μg/kg/d, or OA at 7.5 μg/kg/d via an osmotic mini-pump. Under isoflurane anesthesia, the mini-pump was implanted under the skin of the neck area. Body weight, food intake, and collections of blood and urine samples were determined before and after treatment. Animals were fasted from 6:00 pm to 9:00 am before blood sampling. Blood sampling was conducted by making a small cut (˜2 mm) in the tail using razor blade. 24-hour urine was collected using metabolic cages.
# To evaluate the efficacy of OA-NO2 for treatment of diabetes, Zucker diabetic rats were used. These animals develop severe hyperglycemia and hyperinsulinemia, the two major parameters of type 2 diabetes.
Compound,"reduction of proteinuria (urinary protein excretion) (Zucker obese rats; Zucker obese rats, 2 weeks)","plasma free fatty acid levels (non-esterified fatty acid) (Zucker obese rats; Zucker obese rats, 2 weeks)","plasma cholesterol levels (Zucker obese rats; Zucker obese rats, 2 weeks)","plasma HDL levels (Zucker obese rats; Zucker obese rats, 2 weeks)",body weight gain (Zucker obese rats; 2 weeks),"plasma TBARS (index of systemic oxidative stress), increase in obese vs. lean rats (Zucker obese rats; Zucker obese rats, 2 weeks (FIG. 6))","plasma triglyceride (Zucker obese rats; Zucker obese rats, 2 weeks, fasted, vs. vehicle control (FIG. 3A))","food intake (Zucker obese rats; Zucker obese rats, 2 weeks, vs. vehicle (FIG. 2))",hyperglycemia (plasma glucose) (Zucker diabetic rats; vs. Day 0 (FIG. 8A)),plasma insulin levels (Zucker diabetic rats; vs. Day 0 (FIG. 8B))
"CCCCCCCC/C=C\CCCCCCCC(=O)O [OA, Oleic acid, reference compound]",no significant effect,lack of an effect,unaffected,ineffective,not different,–,–,–,–,–
nitrooleic acid [OA-NO2],50%,almost completely normalized,unaffected,significantly increased,less than that in the vehicle control,significantly attenuated,significant triglyceride-lowering effect,significantly reduced,significantly attenuated,tended to reduce
